Results: patent US20090208432A1, “AH Receptor Antagonists” (SYMRISE GmbH & Co., KG, priority 2006, published 2009)

Biological target: T1, AhR (Homo sapiens, UniProt P35869)
T1 construct: endogenous in cells; host or cells: HaCaT keratinocytes
T1 sequence (P35869 11-848): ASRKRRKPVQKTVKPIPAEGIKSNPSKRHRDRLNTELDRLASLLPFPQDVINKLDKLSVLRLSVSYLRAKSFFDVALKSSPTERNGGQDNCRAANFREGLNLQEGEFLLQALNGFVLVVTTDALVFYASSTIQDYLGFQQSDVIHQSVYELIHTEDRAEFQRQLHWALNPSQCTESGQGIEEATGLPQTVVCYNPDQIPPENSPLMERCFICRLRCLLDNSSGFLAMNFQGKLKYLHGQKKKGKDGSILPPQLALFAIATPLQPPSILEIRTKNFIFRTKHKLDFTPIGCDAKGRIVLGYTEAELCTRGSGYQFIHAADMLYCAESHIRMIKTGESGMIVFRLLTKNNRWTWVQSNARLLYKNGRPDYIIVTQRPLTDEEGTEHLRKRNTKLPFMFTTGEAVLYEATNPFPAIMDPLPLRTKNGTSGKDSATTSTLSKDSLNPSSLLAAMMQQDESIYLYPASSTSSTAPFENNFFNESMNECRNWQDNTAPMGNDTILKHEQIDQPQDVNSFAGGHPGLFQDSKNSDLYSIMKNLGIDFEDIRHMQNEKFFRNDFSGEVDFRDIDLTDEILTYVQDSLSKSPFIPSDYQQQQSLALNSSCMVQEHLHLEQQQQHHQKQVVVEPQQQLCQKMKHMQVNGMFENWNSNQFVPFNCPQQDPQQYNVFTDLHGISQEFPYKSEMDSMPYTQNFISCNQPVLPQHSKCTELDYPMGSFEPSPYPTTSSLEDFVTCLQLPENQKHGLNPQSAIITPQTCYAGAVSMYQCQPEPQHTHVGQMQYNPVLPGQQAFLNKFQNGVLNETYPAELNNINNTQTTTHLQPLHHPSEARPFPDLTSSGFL
Assay: Quantification of AhR inhibition via determination of CYP1A1-mRNA in UVB-irradiated HaCaT keratinocytes
Assay type: cell-based
Details: HaCaT cells, 100 J/m^2 UVB, pretreated 1 h before irradiation, RNA after 4 h, relative to control (PBS, 0.1% DMSO, UVB-irradiated)
Description: HaCaT keratinocytes were cultivated in DMEM containing 10% of foetal calf serum. The cells were irradiated with UVB in PBS (phosphate buffered saline). For irradiation with UVB we used a TL20W/12RS lamp, which contains four parallel tubes (Philips, Eindhoven, The Netherlands) and emits the bulk of its energy in the UVB range (290-320 nm). The emission peak of the lamp is at 310 nm. Control cells were subjected to the same treatment but were not irradiated. To inhibit the AhR, the cells were treated with the test substances 1 h prior to irradiation.
HaCaT cells were irradiated with 100 J/m^2 of UVB. Some cells were pretreated with the test substances 1 h prior to irradiation. […] The PCR mix was composed of 1/10 by volume of QuantiTect® SYBR Green PCR Master Mix (Qiagen, Hilden, Germany), 0.5 μmol/l of the appropriate primer, 2 μl of cDNA and DEPC-treated (diethyl pyrocarbonate-treated) H2O in a final volume of 20 μl. […] The PCR conditions were as follows: 40 cycles of 15 sec at 94° C. for denaturing, 25 sec at 60° C. for primer attachment, 30 sec at 72° C. for extension and 2 sec at 72° C. for fluorescence measurement. […] The PCR products were quantified via a fragment-specific standard curve using LightCycler software 3. […]
Quantification of AhR Inhibition Via Determination of CYP1A1-mRNA

| inhibition at 350 µM (0.35 mM, read-out: CYP1A1 inhibition in presence of UVB light) [%] | CYP1A1 inhibition in presence of UVB light (0.0001 wt. %) [%] | SMILES |
| --- | --- | --- |
| 60 | – | Oc1ccc2c(c1)OC[C@H]1c3cc4c(cc3O[C@@H]21)OCO4 [Maackiain] |
| – | 60 | Oc1ccc2c(c1)OC1c3cc(O)c(O)cc3COC1C2O (centres unmarked) [Peltogynol] |
